Source: patent US20250026747A1, “COLIBACTIN DERIVATIVES AND METHODS OF TREATING, AMELIORATING, AND/OR PREVENTING CANCER” (priority 2021, published 2025)

Test system: linearized pUC19 DNA
Experiment: DNA cross-linking assay with linearized pUC19 DNA, denaturing agarose gel electrophoresis
Assay type: biochemical
Conditions: for DNA interstrand cross-link (ICL) formation: linearized pUC19 DNA
Protocol: FIGS. 6A-6C depict the DNA crosslinking ability of several compounds according to some embodiments. The DNA cross-linking assays employ linear pUC19 DNA. DMSO was used as vehicle (negative control), and 100 μM cisplatin was used as positive controls. The DNA was analyzed by 0.4% NaOH denaturing and agarose gel electrophoresis (90 V, 1.5 h). FIG. 6A depicts the DNA cross-linking comparison of colibactin 770 (3a), stable colibactin 742 (4), and its linear precursor 9 at pH 5.0. FIG. 6B depicts the comparison of the relative DNA cross-linking abilities of colibactin 742 (4) and its linear precursor 9 at pH 5.0. FIG. 6C depicts the comparison of the relative DNA cross-linking abilities of colibactin 742 (4) and its linear precursor 9 at pH 7.0.
FIG. 10 depicts the DNA cross-linking assay employing linear pUC19 DNA and synthetic colibactin (3), 9, and colibactin 742 (4) according to some embodiments. Specifically, 5% DMSO was used as vehicle (negative control), and 100 μM cisplatin was used as positive control. DNA ladder (Lane #1); 5% DMSO (Lane #2); 100 μM cisplatin (Lane #3); 200 μM colibactin (3) (Lane #4); 100 μM colibactin (3) (Lane #5); 10 μM colibactin (3) (Lane #6); 1 μM colibactin (3) (Lane #7); 200 μM 9 (Lane #8); 100 μM 9 (Lane #9); 10 μM 9 (Lane #10); 1 μM 9 (Lane #11); 200 μM colibactin 742 (4) (Lane #12); 100 μM colibactin 742 (4) (Lane #13); 10 μM colibactin 742 (4) (Lane #14); 1 μM colibactin 742 (4) (Lane #15). Conditions (Lane #3): linearized pUC19 DNA (15.4 μM in base pairs), 5% DMSO (vehicle), 100 μM cisplatin, 10 mM citric buffer, pH 5.0, 4 h, 37° C. Conditions (Lanes #4-#7): linearized pUC19 DNA (15.4 μM in base pairs), colibactin (3) (200 μM-1 μM), 5% DMSO, 10 mM citric buffer, pH 5.0, 4 h, 37° C. Conditions (Lanes #8-#11): linearized pUC19 DNA (15.4 μM in base pairs), 9 (200 μM-1 μM), 5% DMSO, 10 mM citric buffer, pH 5.0, 4 h, 37° C. Conditions (Lanes #12-#15): linearized pUC19 DNA (15.4 μM in base pairs), colibactin 742 (4) (200 μM-1 μM), 5% DMSO, 10 mM citric buffer, pH 5.0, 4 h, 37° C. The DNA was analyzed by native, 0.2% NaOH, 0.4% NaOH, and 1% NaOH denaturing agarose gel electrophoresis (90 V, 1.5 h). Linear=linearized DNA in native form, linear-denat.=linearized DNA in denaturing form, linear-XL=linerized DNA cross-linked by colibactins or cisplatin.
FIG. 11 depicts the DNA cross-linking assay employing linear pUC19 DNA and synthetic colibactin fragments 23, 24, and 22. Specifically, 5% DMSO was used as vehicle (negative control), and 100 μM cisplatin was used as positive control. DNA ladder (Lane #1); 5% DMSO (Lane #2); 100 μM cisplatin (Lane #3); 500 μM 23 (Lane #4); 100 μM 23 (Lane #5); 10 μM 23 (Lane #6); 1 μM 23 (Lane #7); 100 nm 23 (Lane #8); 500 μM 24 (Lane #9); 100 μM 24 (Lane #10); 10 μM 24 (Lane #11); 1 μM 24 (Lane #12); 100 nm 24 (Lane #13); 500 μM 22 (Lane #14); 100 μM 22 (Lane #15); 10 μM 22 (Lane #16); 1 μM 22 (Lane #17); 100 nm 22 (Lane #18). Conditions (Lane #2): linearized pUC19 DNA (15.4 μM in base pairs), 5% DMSO (vehicle), 10 mM citric buffer, pH 5.0, 4 h, 37° C. Conditions (Lane #3): linearized pUC19 DNA (15.4 μM in base pairs), 5% DMSO (vehicle), 100 μM cisplatin, 10 mM citric buffer, pH 5.0, 4 h, 37° C. Conditions (Lanes #4-#8): linearized pUC19 DNA (15.4 μM in base pairs), 23 (500 μM-100 nM), 5% DMSO, 10 mM citric buffer, pH 5.0, 4 h, 37° C. Conditions (Lanes #9-#13): linearized pUC19 DNA (15.4 μM in base pairs), 24 (500 μM-1 μM), 5% DMSO, 10 mM citric buffer, pH 5.0, 4 h, 37° C. Conditions (Lanes #14-#18): linearized pUC19 DNA (15.4 μM in base pairs), 22 (500 μM-100 nM), 5% DMSO, 10 mM citric buffer, pH 5.0, 4 h, 37° C. The DNA was analyzed by native, 0.2% NaOH, 0.4% NaOH, and 1% NaOH denaturing agarose gel electrophoresis (90 V, 1.5 h). Linear=linearized DNA in native form, linear-denat.=linearized DNA in denaturing form, linear-XL=DSB/linerized DNA cross-linked by colibactins or cisplatin. […]

Structure (SMILES) | DNA interstrand cross-link (ICL) formation (pH 5.0, 4 h, 37° C.) | DNA interstrand cross-link (ICL) formation (pH 7.0, 1 nM-100 μM) | concentration inducing stable DNA ICLs relative to 3a (pH 5.0) | stability of the ICLs under increasingly stringent denaturing conditions (pH 5.0, native, 0.2%, 0.4%, 1% NaOH gels) | DNA alkylation
C[C@H]1CCC(CC(=O)NC2(C(=O)CC(=O)NCC(=O)c3csc(CCc4csc(CNC(=O)CC(=O)C5(NC(=O)CC6=N[C@@H](C)CC6)CC5)n4)n3)CC2)=N1 [compound 9] | induced stable DNA ICLs | induced stable ICLs | ten-fold lower | comparable to those derived from 3a | 
C[C@H]1CCC(C2=C(CC(=O)NCC(=O)c3csc(CCc4csc(CNC(=O)CC5=C(C6=N[C@@H](C)CC6)C(=O)NC5(C)C)n4)n3)C(C)(C)NC2=O)=N1 [compound 22] | failed to form DNA ICLs |  |  |  | lack of DNA alkylation
CCOC(=O)c1csc(CNC(=O)CC2=C(C3=N[C@@H](C)CC3)C(=O)NC23CC3)n1 [compound 23, reference compound] | failed to form DNA ICLs |  |  |  | 
CCOC(=O)c1nc(C2(O)CNC(=O)C2C2=C(C3=N[C@@H](C)CC3)C(=O)NC23CC3)cs1 (some centres unmarked) [compound 24] | failed to form DNA ICLs |  |  |  | 
